ChEMBL document CHEMBL1131976, “Syntheses of novel antitumor dihydroxanthone derivatives with inhibitory activity against DNA topoisomerase II” (Bioorg Med Chem Lett, 1999)

What was measured:
HCT-116 [1] = test: In vitro cytotoxic activity against human cancer cell line HCT116 by using MTT assay; type: functional, cell-based
K562 = test: In vitro cytotoxic activity against human cancer cell line K562 by using MTT assay; type: functional, cell-based
P388 = test: In vitro cytotoxic activity against murine cancer cell line P388 by using MTT assay; type: functional, cell-based; conditions: Mus musculus
DNA topoisomerase 2 = molecular target: T1, DNA topoisomerase 2 (Drosophila melanogaster, UniProt P15348); test: In vitro inhibitory activity against topoisomerase II (Topo II) by using decatenation assay
T1 sequence (P15348 whole entry): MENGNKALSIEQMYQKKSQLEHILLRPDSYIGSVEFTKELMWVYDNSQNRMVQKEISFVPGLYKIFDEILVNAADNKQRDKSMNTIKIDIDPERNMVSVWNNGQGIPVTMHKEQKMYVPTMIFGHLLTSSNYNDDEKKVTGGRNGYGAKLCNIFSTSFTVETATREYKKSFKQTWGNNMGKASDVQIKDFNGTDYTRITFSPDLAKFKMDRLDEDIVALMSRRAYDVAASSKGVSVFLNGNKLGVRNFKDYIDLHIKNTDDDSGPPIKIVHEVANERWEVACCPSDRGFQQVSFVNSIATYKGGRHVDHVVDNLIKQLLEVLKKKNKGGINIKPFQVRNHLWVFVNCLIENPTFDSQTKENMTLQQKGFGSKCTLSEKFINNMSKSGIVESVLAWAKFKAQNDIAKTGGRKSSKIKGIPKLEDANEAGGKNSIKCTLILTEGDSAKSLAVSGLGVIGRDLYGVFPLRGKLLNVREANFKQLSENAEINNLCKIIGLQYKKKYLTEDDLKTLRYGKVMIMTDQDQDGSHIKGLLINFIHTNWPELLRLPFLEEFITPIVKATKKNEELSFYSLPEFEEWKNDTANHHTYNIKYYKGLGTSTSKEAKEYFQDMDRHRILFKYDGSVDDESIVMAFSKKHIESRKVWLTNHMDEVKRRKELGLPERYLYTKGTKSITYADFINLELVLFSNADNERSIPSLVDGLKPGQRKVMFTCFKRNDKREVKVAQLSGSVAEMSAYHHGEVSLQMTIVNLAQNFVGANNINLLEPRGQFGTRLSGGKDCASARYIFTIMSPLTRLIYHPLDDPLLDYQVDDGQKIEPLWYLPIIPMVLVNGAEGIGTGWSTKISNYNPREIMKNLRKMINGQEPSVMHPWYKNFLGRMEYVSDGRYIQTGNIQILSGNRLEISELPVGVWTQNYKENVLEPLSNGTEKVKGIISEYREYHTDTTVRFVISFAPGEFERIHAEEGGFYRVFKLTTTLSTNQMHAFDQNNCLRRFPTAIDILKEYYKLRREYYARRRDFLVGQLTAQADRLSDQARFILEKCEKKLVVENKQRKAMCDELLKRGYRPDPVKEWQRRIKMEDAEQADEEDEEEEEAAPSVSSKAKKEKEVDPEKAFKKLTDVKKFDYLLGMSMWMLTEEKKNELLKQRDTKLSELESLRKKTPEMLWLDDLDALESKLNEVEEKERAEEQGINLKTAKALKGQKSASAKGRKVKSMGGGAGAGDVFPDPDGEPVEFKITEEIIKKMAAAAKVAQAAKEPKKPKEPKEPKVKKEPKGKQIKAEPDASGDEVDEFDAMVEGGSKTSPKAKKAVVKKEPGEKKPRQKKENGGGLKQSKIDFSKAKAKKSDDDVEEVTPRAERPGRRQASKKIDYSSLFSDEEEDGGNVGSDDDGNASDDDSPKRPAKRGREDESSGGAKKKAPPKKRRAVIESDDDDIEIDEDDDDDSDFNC

DNA topoisomerase 1 = molecular target: T2, DNA topoisomerase 1 (Mus musculus, UniProt Q04750); test: In vitro inhibitory activity against topoisomerase I (Topo I) by using relaxation assay
T2 sequence (Q04750 whole entry): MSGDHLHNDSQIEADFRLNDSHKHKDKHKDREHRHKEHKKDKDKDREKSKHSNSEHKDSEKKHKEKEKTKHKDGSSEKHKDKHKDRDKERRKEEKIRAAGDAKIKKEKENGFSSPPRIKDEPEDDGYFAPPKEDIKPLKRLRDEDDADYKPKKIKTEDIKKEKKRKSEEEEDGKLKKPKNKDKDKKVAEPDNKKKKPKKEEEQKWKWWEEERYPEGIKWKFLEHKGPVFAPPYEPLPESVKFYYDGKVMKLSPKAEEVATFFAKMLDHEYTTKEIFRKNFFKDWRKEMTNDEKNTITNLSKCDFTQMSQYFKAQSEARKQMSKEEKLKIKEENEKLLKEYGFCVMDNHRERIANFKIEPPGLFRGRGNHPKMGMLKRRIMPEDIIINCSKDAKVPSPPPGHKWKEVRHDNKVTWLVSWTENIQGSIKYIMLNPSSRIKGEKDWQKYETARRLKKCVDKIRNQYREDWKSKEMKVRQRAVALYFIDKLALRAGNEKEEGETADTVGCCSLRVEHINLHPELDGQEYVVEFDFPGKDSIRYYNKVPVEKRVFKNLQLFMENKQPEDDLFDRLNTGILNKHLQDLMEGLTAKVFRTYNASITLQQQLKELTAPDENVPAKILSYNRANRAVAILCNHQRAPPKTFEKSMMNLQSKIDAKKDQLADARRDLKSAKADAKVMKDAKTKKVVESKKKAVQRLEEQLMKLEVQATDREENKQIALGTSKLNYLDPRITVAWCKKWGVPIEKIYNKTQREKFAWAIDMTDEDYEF

Mus musculus [2] = test: In vivo antitumor activity against Colon 26 murine tumor model at a dose of 10 mg/kg administered intravenously; type: functional; conditions: route intravenous
HCT-116 [3] = test: In vitro cytotoxic activity against HCT116 human cancer cell line at 40 uM; IA means Inactive; type: functional, cell-based
Mus musculus [4] = test: In vivo antitumor activity against Colon 26 murine tumor model at a dose of 20 mg/kg administered intravenously; type: functional; conditions: route intravenous

Row | SMILES | IC50 (HCT-116 [1]) [µM] | IC50 (K562) [µM] | IC50 (P388) [µM] | IC50 (DNA topoisomerase 2) [µM] | IC50 (DNA topoisomerase 1) [µM] | Activity (Mus musculus [2]) [%] | IC50 (HCT-116 [3]) | Activity (Mus musculus [4]) [%]
1 | Cc1cc(O)c2c(c1)O[C@@]1(C(=O)NCCO)C(=CC=C[C@H]1O)C2=O | 7.88 | 10.6 | 2.67 | 23 | 102 | – | – | –
2 | Cc1cc(O)c2c(c1)O[C@@]1(C(N)=O)C(=CC=C[C@H]1O)C2=O | 0.33 | 0.59 | 0.052 | 29 | 63 | 42 | – | –
3 | Cc1cc(O)c2c(=O)c3ccccc3oc2c1 | – | – | – | – | – | – | Not Active | –
4 | CNC(=O)[C@]12Oc3cc(C)cc(O)c3C(=O)C1=CC=C[C@H]2O | 1.13 | 2.26 | 0.24 | 132 | > 300 | – | – | –
5 | Cc1cc(O)c2c(c1)O[C@@]1(C(=O)N3CCCC3)C(=CC=C[C@H]1O)C2=O | 1.64 | 1.52 | 0.56 | – | – | – | – | –
6 | Cc1cc(O)c2c(c1)O[C@@]13C(=O)N(C)[C@@H](CC=C1C2=O)[C@H]3O | 19.6 | 6.31 | – | > 300 | > 300 | – | – | –
7 | COC(=O)[C@]12Oc3cc(C)cc(O)c3C(=O)C1=CC=C[C@H]2O | 0.14 | 0.32 | 0.024 | 2.2 | 172 | – | – | 24
8 | Cc1cc(O)c2c(c1)O[C@@]1(C(=O)N(C)C)C(=CC=C[C@H]1O)C2=O | 0.79 | 0.98 | 0.15 | – | – | – | – | –
